Patent publication US20100331363A1, “TREATMENT OF MITOCHONDRIAL DISORDERS USING A FARNESYL TRANSFERASE INHIBITOR” (Link Medicine Corporation, priority 2008, published 2010)
Entries after “also recorded” stand apart in the source; their conditions may differ. Read-outs that look alike come from different tables or passages of the source.

Experiments:
human α-synuclein [1] = experiment: Masliah D-line α-synuclein transgenic mouse, α-synuclein immunoreactivity and ELISA; format: in vivo
Protocol: Animals and treatments: Male and female human WT alpha-synuclein over-expressing transgenic mice^32 at 6 months of age were given vehicle (10% beta-cyclodextrin) or LNK-754-TS (0.09, 0.9 and 9 mg/kg) per oral gavage twice daily for 3 months or animals at 7 months of age were given vehicle (2.5% beta-cyclodextrin) or LNK-754-TS (2 mg/kg) once every three days for 3 months. Male and female TAU transgenic mice expressing TAU441 bearing the missense mutations V337M^50 and R406W under the control of the murine Thy-1 promoter with a CB6xC57BL/6 background were 5 months old at the time when the oral treatment for three months with LNK-754-TS (0.9 and 0.09 mg/kg) as well as vehicle (2.5% beta-cyclodextrin) was started. Female human APP/PS1 (APP (London V7171)/PS1(A246E)) over-expressing transgenic mice were treated with LNK-754-TS (0.9 mg/kg) or vehicle (2.5% beta-cyclodextrin) for 2 months or 12 days.
Immunohistochemistry and quantification of stained cells: For evaluation of α-synuclein immunoreactivity (IR), 5 sagittal cryo-cut sections (10 μm slice thickness) from five different layers were used for counting of IR cells in the cortex and hippocampus. Brain sections were stained with a monoclonal human α-synuclein specific antibody (Alexis®; Cat#804-258-L001; dilution 1:5), followed by a secondary Ab Cy 2-Goat Anti-Rat (Jackson ImmunoResearch®; dilution 1:200). IR positive cells were quantified using specialized image analysis software (Image Pro Plus, version 4.5.1.29). For Tau transgenic animals, 5 μm thick coronal paraffin sections were stained with the monoclonal mouse anti-human TAU-antibodies (AT180—1:100; HT7—1:500) and visualized using an anti-mouse Cy3 secondary antibody (1:500, Jackson Laboratories®). Images were evaluated with ImageProPlus (version 6.2) image analysis software. For APP/PS1 transgenic animals sagittal hemisections (40 μm) were collected and processed for Aβ immunohistochemistry using an 6E10 antibody, Thioflavin-S staining. Primary antibodies were detected by the ABC method.
ELISA quantification of α-Synuclein in the α-Synuclein transgenic animals: Brain homogenate was centrifuged and the supernatant saved as fraction F1. The pellet was washed then resuspended and saved as fraction F2. Plates (Nunc, 464718) were coated with SYN-1 (1:1000, BD Transduction Labs, 610787). Monomeric recombinant α-synuclein was included as an internal standard. Biotinylated antibody FL-140 (1:300, Santa Cruz Biotechnology, sc-10717-B) and ExtrAvidin-Alkaline phosphatase (3:5000, Sigma, E2636) was added followed by pNPP substrate solution (Sigma, N1891). Raw absorbance (405 nm) was then normalized to the total protein concentration of each sample. In the APP/PS1 transgenic animal, brains were homogenized and the supernatant, Faction 1, was separated from the pellet. The pellets were further processed with addition of NP40 and Triton X-100. The supernatant was separated from the pellet as the insoluble membrane, Fraction 2, and was dissolved in 8M Guanidine. To quantify the amount of human Aβ-40 and Aβ-42, ELISA kits were used (The Genetics Company, Zurich, Switzerland).
In FIG. 2 is shown efficacy data for LNK-754-TS in the Masliah D-line transgenic α-synuclein mouse (an accepted model of synucleinopathies). Two trials are shown, the first (FIG. 2A) at higher doses of LNK-754-TS: 45 mg/kg and 9 mg/kg. […] The second trial (FIG. 2B) explores the low dose range for efficacy in the α-synuclein models. Here, doses start as low as 0.9 mg/kg, and extend through 9 mg/kg, all below the efficacious dose range in the mouse oncology model.
After dosing with LNK-754-TS for three months (twice daily at 0.09 mg/kg or 0.9 mg/kg), α-synuclein accumulation in the brain was analyzed by immunohistochemical (human specific α-synuclein immunoreactivity) and biochemical (α-synuclein ELISA) means. […]

GGTase = GGTase (Homo sapiens, UniProt P49354+P53609); experiment: Table 5A in vitro GGTI (H-Ras, K-Ras CAAX mutant); format: biochemical
Text: The selectivity of LNK-754 for FTase over GGTAse is shown below in Table 5A.

INS1 cells = experiment: Palmitate-induced cell death of INS1 cells, propidium iodide flow cytometry; format: cell-based; details: low dose; palmitate 18 hours, compound last 12 hours
Protocol: LNK-754 was tested using a cell death assay to determine whether it had any effect on palmitate-induced cell death. For Example, one example of such an assay is as follows: INS1 cells were incubated in control medium or in medium containing palmitate for 18 hours and either rapamycin or LNK-754 at 0.25 nM, 0.5 nM, 1 nM, 10 nM, and 100 nM were added for the last 12 hours. At the end of the incubation, the cells were washed with PBS and stained with 1 μg/ml propidium iodide (e.g., Molecular Probes, P3566). FACS data analysis was performed and cell debris was excluded. […] At low dose, LNK-754 behaves similar to rapamycin.

human α-synuclein [2] = experiment: Masliah D-line α-synuclein transgenic mouse, α-synuclein immunoreactivity and ELISA; format: in vivo; details: 0.09 mg/kg, second trial (FIG. 2B)
LC3-II protein = LC3-II protein level in SH-SY5Y cells with or without bafilomycin A1; format: cell-based, human
Protocol: The observed increase in LC3-positive autophagosomes could result, in principle, from either an increased flux through the autophagy pathway or decreased autophagosome degradation (Pankiv, S., et al. J Biol Chem 282, 24131-24145 (2007); Kamada, Y., et al. J Cell Biol 150, 1507-1513 (2000)). […] In order to ascertain an increase in autophagic flux, cells were co-treated with LNK-754-TS and an inhibitor of autophagosome-lysosome fusion, bafilomycin A1 (10 nM). Bafilomycin treatment alone caused a 100% increase in the amount of LC3-II, consistent with the fact that it inhibits autophagosome degradation (FIG. 8c).

[3] = system: APP processing and secretion; experiment: APP processing and secretion in a cell culture model of pathogenic Aβ production; format: cell-based
Text: Finally, it is important to note that LNK-754-TS had no effect on APP processing and secretion in a cell culture model of pathogenic Aβ production (Selkoe, D. J., et al. Ann N Y Acad Sci 777, 57-64 (1996)).

[4] = system: 3T3H-ras (61 L) xenograft; details: cited from earlier work
[5] = 9 mg/kg PO BID 3 months, first trial (FIG. 2A)
[6] = 45 mg/kg PO BID 3 months (FIG. 2A)
[7] = α-synuclein transgenic mice vs vehicle
[8] = 0.09 or 0.9 mg/kg twice daily, three months

**Q.** For `C#Cc1cccc(-c2cc(=O)n(C)c3ccc([C@](O)(c4ccc(Cl)cc4)c4cncn4C)cc23)c1` [LNK-754, (R)-6-[(4-chlorophenyl)-hydroxyl-(1-methyl-1-H-imidazol-5-yl)-methyl]-4-(3-ethynylphenyl)-1-methyl-2-(1H)-quinonlinone], which “number of α-synuclein positive neurons” value (human α-synuclein [1]; 0.9 mg/kg, second trial (FIG. 2B)) is on record?
**A.** significantly lowered

**Q.** What about the “number of α-synuclein positive neurons” value (human α-synuclein [1]; [5]) of the same compound?
**A.** found to significantly lower

**Q.** And the “number of α-synuclein positive neurons” value (human α-synuclein [1]; [6])?
**A.** did not significantly lower; also recorded: not found to significantly lower

**Q.** What about the “levels of α-synuclein in the hippocampus” value (human α-synuclein [1]; [7]) of the same compound?
**A.** decrease levels of α-synuclein

**Q.** What about the α-synuclein inclusions (human α-synuclein [1]; [7]) of the same compound?
**A.** fewer α-synuclein inclusions

**Q.** What about the IC50 (GGTase; read-out: H-Ras CAAX Mutant GGTI) of the same compound?
**A.** 552 nM

**Q.** What about the IC50 (GGTase; read-out: K-Ras CAAX Mutant GGTI) of the same compound?
**A.** 2890 nM

**Q.** And the palmitate-induced cell death (INS1 cells)?
**A.** protects INS1 cells from palmitate toxicity

**Q.** And the “number of α-synuclein positive neurons” value (human α-synuclein [2])?
**A.** significantly lowered

**Q.** Which “α-synuclein accumulation in brain (immunoreactivity and ELISA)” value (human α-synuclein [1]; 0.09 mg/kg or 0.9 mg/kg twice daily, three months, cortex and hippocampus) does the source give for `C#Cc1cccc(-c2cc(=O)n(C)c3ccc([C@](O)(c4ccc(Cl)cc4)c4cncn4C)cc23)c1` [LNK-754-TS, (R)-6-[(4-chlorophenyl)-hydroxyl-(1-methyl-1-H-imidazol-5-yl)-methyl]-4-(3-ethynylphenyl)-1-methyl-2-(1H)-quinonlinone (2S, 3S)-dihydroxybutanedioate] here?
**A.** clearly reduced; also recorded: halts deposition

**Q.** What about the “cortical α-synuclein immunoreactivity” value (human α-synuclein [1]; 2 mg/kg once every 72 hours, three months, vs baseline and vehicle) of the same compound?
**A.** significantly lower than at the outset of treatment; also recorded: significantly reduces

**Q.** What about the “number of α-synuclein positive neurons” value (human α-synuclein [1]; [5]) of the same compound?
**A.** significant reduction

**Q.** What about the “number of α-synuclein IR cells in hippocampus” value (human α-synuclein [1]; 9 mg/kg PO BID 3 months, second lower dose trial (FIG. 2B)) of the same compound?
**A.** significance level was not reached

**Q.** And the “number of α-synuclein positive neurons” value (human α-synuclein [1]; [6])?
**A.** not significantly effective

**Q.** What about the “astrocytosis (GFAP staining)” value (human α-synuclein [1]; [8]) of the same compound?
**A.** GFAP staining was unchanged

**Q.** What about the drug-dependent toxicity (human α-synuclein [1]; [8]) of the same compound?
**A.** None of the treated animals showed any evidence

**Q.** What about the “neuronal loss (NeuN staining and brain volume)” value (human α-synuclein [1]; [8]) of the same compound?
**A.** no evidence of neuronal loss

**Q.** What about the “synaptic damage (synaptophysin staining)” value (human α-synuclein [1]; [8]) of the same compound?
**A.** synaptophysin staining was unchanged

**Q.** What about the “reduction of α-synuclein immunoreactivity, hippocampal slices” value (human α-synuclein [1]; three-month dosing trial (FIG. 9c)) of the same compound?
**A.** ca. 50%

**Q.** What about the “additional increase in LC3-II over bafilomycin alone” value (LC3-II protein; 100 nM in combination with bafilomycin A1 10 nM) of the same compound?
**A.** 75%

**Q.** What about the “accumulation of LC3-I or LC3-II protein” value (LC3-II protein; compound alone, without bafilomycin) of the same compound?
**A.** did not cause accumulation

**Q.** What about the “APP processing and secretion” value [3] of the same compound?
**A.** no effect

**Q.** And the “efficacy against tumor growth” value ([4]; 25 mg/kg, lowest dose tested)?
**A.** borderline efficacy

**Q.** What about the “dose required for suppression of tumor growth” value ([4]; 10 days BID, 3T3H-ras (61 L) xenograft athymic mouse) of the same compound?
**A.** at least 25 mg per kg
